Assay results from ChEMBL document CHEMBL1135948, “A solid-phase approach towards the synthesis of PDE5 inhibitors” (Bioorg Med Chem Lett, 2002).

Target: cGMP-specific 3',5'-cyclic phosphodiesterase (Homo sapiens) (UniProt O76074)
Experiment: Percentage inhibition against phosphodiesterase 5 (PDE5) was determined using [3H]cGMP scintillation proximity assay at concentration of 1 uM

inhibition [%]	Compound
15	CC(C)Cn1c(=O)n(CSc2ccccc2)c(=O)c2[nH]c(Cc3ccc(Br)cc3)nc21
57	CCCn1c(=O)c2[nH]c(Cc3ccc(Br)cc3)nc2n(CC(C)C)c1=O
13	CC(C)Cn1c(=O)n(Cc2cccc3c2OCO3)c(=O)c2[nH]c(Cc3ccc(Br)cc3)nc21
41	CC(C)Cn1c(=O)n(CN(C(C)C)C(C)C)c(=O)c2[nH]c(Cc3ccc(Br)cc3)nc21
42	CC(C)Cn1c(=O)[nH]c(=O)c2[nH]c(Cc3ccc(Br)cc3)nc21
88	CC(C)Cn1c(=O)n(CO)c(=O)c2[nH]c(Cc3ccc(Br)cc3)nc21
33	CC(C)Cn1c(=O)n(COc2ccccc2)c(=O)c2[nH]c(Cc3ccc(Br)cc3)nc21
59	CC(C)Cn1c(=O)n(-c2cncn2C)c(=O)c2[nH]c(Cc3ccc(Br)cc3)nc21
20	CC(C)Cn1c(=O)n(-c2ccccn2)c(=O)c2[nH]c(Cc3ccc(Br)cc3)nc21
4	CC(C)Cn1c(=O)n(C2CCC2)c(=O)c2[nH]c(Cc3ccc(Br)cc3)nc21
93	CCn1c(=O)c2[nH]c(Cc3ccc(Br)cc3)nc2n(CC(C)C)c1=O
22	CC(C)Cn1c(=O)n(-c2ccncc2)c(=O)c2[nH]c(Cc3ccc(Br)cc3)nc21
38	CC(C)Cn1c(=O)n(CN)c(=O)c2[nH]c(Cc3ccc(Br)cc3)nc21
68	C#Cn1c(=O)c2[nH]c(Cc3ccc(Br)cc3)nc2n(CC(C)C)c1=O
38	CCOc1ccccc1-n1c(=O)c2[nH]c(Cc3ccc(Br)cc3)nc2n(CC(C)C)c1=O
42	CC(C)Cn1c(=O)n(CCC2CCCCC2)c(=O)c2[nH]c(Cc3ccc(Br)cc3)nc21
35	CC(C)Cn1c(=O)n(CC(C)(C)C)c(=O)c2[nH]c(Cc3ccc(Br)cc3)nc21
93	CC(C)Cn1c(=O)n(C)c(=O)c2[nH]c(Cc3ccc(Br)cc3)nc21
